Five compounds from paper PMC11542186, “Pin1 WW Domain Ligand Library Synthesized with an Easy Solid-Phase Phosphorylating Reagent” (Biochemistry, 2024) can be followed below.

Test [1] concerns the target T1, Pin1 WW domain (Pin1–HRP) (Homo sapiens, UniProt Q13526).
T1 construct: purchased R&D Systems
Briefly: ELEBA competitive binding Kd-obs determination. Particulars: for Kd: competitive with plate-linked L1, concentration at which % Pin1-HRP bound to the plate is 50%, purified resynthesized ligands, 200 pM Pin1–HRP. The method, then: Concentration-dependent ELEBAs were performed for ligands 1{2, d}, 1{18, l}, cis-1{2, n}, and trans-1{2, n} obtained by large-scale manual solid-phase synthesis and purification. The cis- and trans-isomers of 1{2, d} were separated by HPLC. The two diastereomers (∼ 1:1) of 1{18, l} were used as a mixture because they were inseparable in our systems. Competitive dissociation constants (Kd-obs) were measured by ELEBA (Figure 4). Kd-obs values were normalized to percentage Pin1–HRP bound to the plate-linked ligand by setting the lowest concentration of competitive ligand in solution to 100% binding.[32]Kd-obs is defined as the concentration of a ligand where the % Pin1-HRP bound to the plate is 50%.
(§1) The Pin1 WW domain ligand, Fmoc–VPRpTPVGGGK–NH2, (100 μL/well, 245 μM stock solution) was covalently attached to a 96-well plate through the ε-amino group of the Lys side chain at pH 11.0, as published.[44] Ligands were dissolved in DMSO at stock concentrations of ca. 50 mM by weight. Competitive binding with plate-linked Fmoc–VPRpTPVGGGK–NH2L1 of pSer–Pro dipeptides was measured at ca. 600 μM for primary screening. In the primary assays, all library members were screened with the crude products. 1{1-21, d} were measured as mixtures of cis- and trans-isomers. Library members synthesized from racemic reagents, such as 1{1-21, c}, 1{1-21, l}, 1{1-21, q}, 1{3, a-q} and 1{8, a-q} were measured as diastereomeric mixtures. The library members were dissolved in DMSO as stock solutions with a concentration of about 37 mM based on estimated yields. The DMSO stock solution of each compound (4 μL) was added into a solution of recombinant Pin1–HRP (R&D Systems) in a PBS buffer with 2% BSA (pH = 7.3). DMSO (4 μL) was used as a negative control. The final volume of the solution was 250 μL, the final concentration of Pin1–HRP was 200 pM, and the estimated final compound concentration was 590 μM. The resulting solution was preincubated for 30 min at ambient temperature, and was added into two wells (100 μL each, for assay in duplicate) of the ligand-linked plate. The solutions were incubated for another 1 h. The solutions were removed by inverting and shaking the plate, and the plate was washed with buffer ([…], and 0.05% Tween 20 in PBS at pH 7.3) three times. A 1:1 solution of hydrogen peroxide and 3,3,5,5′-tetramethylbenzidine (100 μL) was added into each plate well, and incubated in the dark for 20 min. A 2N H2SO4 solution (50 μL) was added to each well to quench the reaction, and the absorbance of was determined at 450 nm. The percentage of Pin1–HRP bound to the plate (% binding) was calculated by eq 1. To calculate the absorbance of a plate well in eq 1, the blank ligand-linked plate was predetermined at the same wavelength, and the absorbance of the blank well was subtracted from the absorbance of the same well containing the final solution. [drawing 2] 1
The competitive dissociation constants, Kd-obs, of cis-1{2, d}, trans-1{2, d}, 1{2,o}, and 1{18, m} were determined by ELEBA after the large-scale synthesis, HPLC purification, and quantification. The final concentrations of each compound were: 2.0, 10, 30, 50, 100, 200, 300, 500, 700, 1000, and 2000 μM. Ligands stock concentrations were 88 mM by weight, and the final concentrations for competitive dissociation constants (Kd) were 2000, 1000, 700, 500, 300, 200, 100, 50, 30, 10, and 5.0 μM. […]

Test [2] has as its target T2, Pin1 WW domain (full-length 15N-Pin1) (Homo sapiens, UniProt Q13526).
T2 construct: Full-length Pin1 was overexpressed and purified as described previously; made in house
Nature of the test: NMR 15N-1H HSQC chemical shift perturbation titration. In kind it is binding. Particulars: global two-state fit of WW domain NH CSPs; 295 K; pH 6.6; 48.6 μM Pin1; read-out: NMR CSP Kd. The source says:
The ELEBA was developed as a method for high-throughput screening, rather than as an absolute measure of binding affinity. […] Since L1 is linked to the plate, ELEBA is not to be taken as a direct measurement of binding affinity.[32] We undertook NMR measurements to determine the affinity and location of binding directly by NMR to distinguish between binding to the catalytic and WW domains of Pin1. Standard NMR backbone ^15N–^1H chemical shifts were mapped onto existing assignments of Pin1 by recording 2-D ^15N–^1H HSQC spectra of full-length ^15N-Pin1 at different ligand concentrations (Figures S2–S5). NH cross-peaks showing ligand-induced chemical shift perturbations (CSPs) identified residues affected by binding. The largest magnitude CSPs were localized to the WW domain.
Full-length Pin1 was overexpressed and purified as described previously.[47] The final NMR buffer conditions were 30 mM imidazole-D4, pH 6.6, with 30 mM NaCl, 0.03% NaN3, 5 mM DTT-d10, and 90%H2O/10%D2O. The ligand stock solutions included 2.4 and 24 mM for 1{18,l}; 2.4 and 16 mM for trans-1{2,d}; 2.4 and 12 mM for cis-1{2,d}; 2.4 mM and 12 mM for 1{2,n}. The stock concentrations were confirmed by standard 1-D ^1H NMR of the samples diluted in the buffer described above.
The NMR titration spectra were recorded at a nominal temperature of 295 K, on a Bruker Avance 700 MHz (16.4 T) spectrometer equipped with a cryogenically cooled TCI probe. Sequential resonance assignments for wild type Pin1 were from our prior publications.[34],[35],[46]−[48] Data processing and cross-peak analysis used Topspin 1.3 and 2.1 (Bruker Biospin, Inc.), and Sparky (T. D. Goddard and D. G. Kneller, SPARKY 3, University of California, San Francisco). The initial Pin1 concentration (apo-Pin1) was 48.6 μM. We recorded 2-D ^15N–^1H HSQC spectra per Mori et al.[51] after each addition of ligand to get NH binding isotherms (NH chemical shift perturbations as a function of the total ligand concentration). Each 2-D data set consisted of 128 FIDs (64 complex points), with 16 scans per FID and a recycle time of 1s. The ^1H^N spectral width was 15 ppm, centered at 4.703 ppm; the ^15N spectral width was 35.24 ppm, centered at 118 ppm. The binding-induced ^15N–^1H chemical shift perturbations (CSPs) were calculated by eq 3. [drawing 4] 3 [35]
The ΔδH and ΔδN terms are the amide ^1H and ^15N chemical shift differences relative to isolated Pin1. To estimate the ligand Kd values for WW domain binding, we globally fitted WW domain NH binding isotherms to the expression for the bound protein fraction in a standard two-state binding equilibrium, P + L ⇌ PL, as described in our previous Pin1 studies.[35] The monitored WW domain residues included K13, R14, M15, S16, G20, R21, A31, S32, Q33, W34, and E35. […]

The target of test [3] is T1, Pin1 WW domain (Pin1–HRP). Nature of the test: ELEBA secondary binding assay. The following applies: 270 μM; crude product; DMSO = 100%. The method, then:
(§2) The library was screened by the ELEBA we reported previously.[44] The crude products resulting from diethyl ether precipitation were used for the primary and secondary ELEBA without additional purification. The concentrations of the crude products were estimated based on quantitative yields; actual concentrations were thus lower, depending on yield and purity. The library products were dissolved in DMSO as stock solutions for assays. […] Recombinant human Pin1 conjugated to horseradish peroxidase (Pin1–HRP) was used in the binding assays.[44] Fmoc-VPRpTPVGGGK-NH2 L2 was used as the positive control and DMSO was used as the negative control on each plate. The percent of Pin1–HRP bound to the plate was calculated by normalizing the binding with DMSO to be 100%. In the primary assays (Figure S1), 14 of the best library members were identified: 1{2,d}, 1{18,f}, 1{20,f}, 1{10, l}, 1{13, l}, 1{18, l}, 1{20, l}, 1{10, n}, 1{18, n}, 1{19, n}, 1{2, n}, 1{20, n}, 1{14, o}, 1{3, o}. In the secondary assay, these ligands were measured again at 270 μM, and three hits, 1{2, d}, 1{18, l} and 1{2, n}, were chosen for further analysis (Figure 3).
The best ligands from each group that blocked Pin1 WW domain binding of HRP-Pin1 bound to plate were reassayed at 270 μM to identify the best ligands through the same procedures above.

Test [4] addresses T1, Pin1 WW domain (Pin1–HRP). Nature of the test: ELEBA primary screening assay of the library. It is filed as binding. Particulars: separate plate of groups A and B (L2 control 85.0443); crude library members; DMSO = 100%; mean of N = 2. The method, then: as §2
as §1, with “2] 1 […]” for “2] 1”
The Fmoc-Ser(2- […]
cyanoethylphosphate)-OH product was cleaved from the resin with TFA. 1H NMR indicated the presence of the Fmoc group, implying that the substrate was successfully attached to the resin (data not shown). To develop the coupling methods, 2-(2-naphthyl)ethylamine and propionic acid were reacted with the pSer–Pro resin. The resulting propanoyl-pSer–Pro–(2-(2-naphthyl)ethyl)-amide (1H NMR below) was excluded from the library assays.
Figure S1 (following pages). Ligands (group A – O) were screening using ELEBA at ca. 266 µM.
Fmoc-VPRpTPVGGGK-NH2 L2 was used as positive control at 76-87 µM from stock solutions […]
of 4.3-4.8 mM. […]

T1 sequence (Q13526 whole entry, the tested form may be a part): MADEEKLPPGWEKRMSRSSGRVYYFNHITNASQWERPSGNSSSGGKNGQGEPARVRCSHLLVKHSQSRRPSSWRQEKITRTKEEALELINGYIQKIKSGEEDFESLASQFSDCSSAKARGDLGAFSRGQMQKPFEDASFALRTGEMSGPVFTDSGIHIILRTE
T2 sequence (Q13526 whole entry, the tested form may be a part): as above

As to `CC(C)(Oc1ccc(Cl)cc1)C(=O)NC(COP(=O)(O)O)C(=O)N1CCCC1C(=O)Nc1ccc2[nH]ncc2c1` (centres unmarked) [1{2, n}], the values for the Kd in test [1] and in test [2] were 206 ± 3 µM and 208 ± 6 µM, respectively.
The like results for `COc1ccc2c(c1)C(CC(=O)NC(COP(=O)(O)O)C(=O)N1CCCC1C(=O)NNC(=O)c1ccoc1)CC2=O` (centres unmarked) [1{18, l}] were, in that order, 130 ± 3 µM and 105 ± 9 µM.
Turning to `O=C(/C=C/c1c[nH]cn1)N[C@@H](COP(=O)(O)O)C(=O)N1CCC[C@H]1C(=O)N1CCOCC1` [1{20,b}], the “ELEBA secondary screen, % of baseline activity” value in test [3] was “ca. 140%”. For the same compound, the “% of Pin1-HRP bound to plate-linked ligand” value in test [4] amounted to 76.1089%.
As to `O=C(C=CSc1ccccc1)NC(COP(=O)(O)O)C(=O)N1CCCC1C(=O)Nc1ccc2[nH]ncc2c1` (stereo not drawn) [cis-1{2, d}], the “relative potency cis vs trans isomer” value in test [1] (ELEBA Kd-obs of cis-1{2, d} vs trans-1{2, d}) is given as “about three times as potent as trans-1{2, d}”. Besides, the values for the Kd in test [1] and in test [2] were 263 ± 6 µM and 95 ± 6 µM, respectively.
In the case of `O=C(C=CSc1ccccc1)NC(COP(=O)(O)O)C(=O)N1CCCC1C(=O)Nc1ccc2[nH]ncc2c1` (stereo not drawn) [trans-1{2, d}], the Kd in test [1] came out at 820 ± 6 µM; in test [2], 214 ± 25 µM.

By Kd is commonly meant the constant that tells how readily two partners part at equilibrium.
